Organism: Rattus norvegicus
Test: Open TG-GATES - Regimen: Single
Assay type: toxicity, organism-based, Sprague-Dawley
Design: regimen Single, gender Male, age 6 weeks
Details: in vivo, po, route gavage; for gamma-GTP / ALP / ALT / AST / BUN / Ca / Cl / DBIL / GLC / IP / K / LDH / Na / PL / RALB / TBIL / TC / TP / CRE: tissue Plasma; for APTT / Bas / Eos / Fbg / Hb / Ht / Lym / MCH / MCHC / MCV / Mono / Neu / PT / Plat / RBC / Ret / WBC: tissue Blood; for KIDNEY_L / KIDNEY_R / KIDNEY_TOTAL: tissue Kidney; for LIVER: tissue Liver
[1] = 15 mg/kg, 24 h, dose level High
[2] = 50 mg/kg, 3 h, dose level Middle
[3] = 50 mg/kg, 6 h, dose level Middle

With `O=P1(N(CCCl)CCCl)NCCCO1` (stereo unspecified) [CYCLOPHOSPHAMIDE ANHYDROUS] as the compound, how does the gamma-GTP (15 mg/kg, 9 h, dose level High) read?
Its gamma-GTP is 1 IU/L.

And the ALP (15 mg/kg, 9 h, dose level Low)?
The ALP was 1388.6 IU/L.

What about the ALT (15 mg/kg, 9 h, dose level Low) of the same compound?
The ALT was 31.2 IU/L.

And the AST (15 mg/kg, 9 h, dose level Low)?
Its AST is 67.6 IU/L.

And the BUN (15 mg/kg, 9 h, dose level Low)?
Its BUN is 8.2 mg/dL.

And the Ca (15 mg/kg, 9 h, dose level Low)?
The Ca was 10.6 mg/dL.

What about the Cl (15 mg/kg, 9 h, dose level Low) of the same compound?
The Cl was 106.6 meq/L.

What about the DBIL (15 mg/kg, 9 h, dose level Low) of the same compound?
The DBIL was 0.012 mg/dL.

What about the GLC (15 mg/kg, 9 h, dose level Low) of the same compound?
Its GLC is 163.8 mg/dL.

And the IP (15 mg/kg, 9 h, dose level Low)?
Its IP is 10.3 mg/dL.

And the K (15 mg/kg, 9 h, dose level Low)?
Its K is 4.4 meq/L.

And the LDH (15 mg/kg, 9 h, dose level Low)?
Its LDH is 55.2 IU/L.

And the Na (15 mg/kg, 9 h, dose level Low)?
Its Na is 142.2 meq/L.

And the PL (15 mg/kg, 9 h, dose level Low)?
Its PL is 135.8 mg/dL.

And the RALB (15 mg/kg, 9 h, dose level Low)?
Its RALB is 2.5 g/dL.

And the TBIL (15 mg/kg, 9 h, dose level Low)?
The TBIL was 0.058 mg/dL.

And the TC (15 mg/kg, 9 h, dose level Low)?
Its TC is 77.4 mg/dL.

What about the TP (15 mg/kg, 9 h, dose level Low) of the same compound?
The TP was 5.2 g/dL.

And the gamma-GTP (15 mg/kg, 9 h, dose level Low)?
The gamma-GTP was 1.2 IU/L.

What about the TERMINAL_BW [1] of the same compound?
Its TERMINAL_BW is 195.1 g.

And the TERMINAL_BW (15 mg/kg, 24 h, dose level Low)?
Its TERMINAL_BW is 205.2 g.

What about the APTT [1] of the same compound?
The APTT was 21.5 s.

What about the Bas [1] of the same compound?
The Bas was 0%.

What about the Eos [1] of the same compound?
Its Eos is 0.8%.

And the Fbg [1]?
Its Fbg is 304 mg/dL.

What about the Hb [1] of the same compound?
Its Hb is 13.6 g/dL.

What about the Ht [1] of the same compound?
The Ht was 40.8%.

And the Lym [1]?
Its Lym is 88.2%.

What about the MCH [1] of the same compound?
Its MCH is 21.2 pg.

And the MCHC [1]?
Its MCHC is 33.4%.

What about the MCV [1] of the same compound?
Its MCV is 63.5 fL.

And the Mono [1]?
The Mono was 2.4%.

What about the Neu [1] of the same compound?
Its Neu is 8%.

And the PT [1]?
Its PT is 16.2 s.

And the Plat [1]?
Its Plat is 117.1 x10_4/uL.

What about the RBC [1] of the same compound?
Its RBC is 643 x10_4/ul.

And the Ret [1]?
The Ret was 5.3%.

And the WBC [1]?
Its WBC is 44.1 x10_2/uL.

What about the APTT (15 mg/kg, 24 h, dose level Low) of the same compound?
Its APTT is 17.5 s.

What about the Fbg (15 mg/kg, 24 h, dose level Low) of the same compound?
Its Fbg is 286.4 mg/dL.

And the Hb (15 mg/kg, 24 h, dose level Low)?
The Hb was 12.9 g/dL.

And the Ht (15 mg/kg, 24 h, dose level Low)?
Its Ht is 38.1%.

And the Lym (15 mg/kg, 24 h, dose level Low)?
Its Lym is 85.4%.

And the MCH (15 mg/kg, 24 h, dose level Low)?
The MCH was 20.7 pg.

What about the MCHC (15 mg/kg, 24 h, dose level Low) of the same compound?
The MCHC was 34%.

What about the MCV (15 mg/kg, 24 h, dose level Low) of the same compound?
Its MCV is 60.9 fL.

What about the Mono (15 mg/kg, 24 h, dose level Low) of the same compound?
Its Mono is 2%.

And the Neu (15 mg/kg, 24 h, dose level Low)?
The Neu was 11.2%.

And the PT (15 mg/kg, 24 h, dose level Low)?
Its PT is 14.1 s.

What about the Plat (15 mg/kg, 24 h, dose level Low) of the same compound?
Its Plat is 116.3 x10_4/uL.

And the RBC (15 mg/kg, 24 h, dose level Low)?
The RBC was 625.2 x10_4/ul.

And the Ret (15 mg/kg, 24 h, dose level Low)?
The Ret was 6.8%.

And the WBC (15 mg/kg, 24 h, dose level Low)?
Its WBC is 48.9 x10_2/uL.

And the KIDNEY_L [1]?
The KIDNEY_L was 0.9 g.

And the KIDNEY_R [1]?
Its KIDNEY_R is 0.9 g.

And the KIDNEY_TOTAL [1]?
Its KIDNEY_TOTAL is 1.8 g.

And the LIVER [1]?
The LIVER was 8.6 g.

What about the LIVER (15 mg/kg, 24 h, dose level Low) of the same compound?
The LIVER was 9.1 g.

And the ALP [1]?
The ALP was 1751 IU/L.

What about the ALT [1] of the same compound?
Its ALT is 45 IU/L.

And the AST [1]?
Its AST is 71 IU/L.

And the BUN [1]?
The BUN was 14.6 mg/dL.

And the CRE [1]?
Its CRE is 0.2 mg/dL.

What about the Ca [1] of the same compound?
Its Ca is 10.8 mg/dL.

What about the Cl [1] of the same compound?
Its Cl is 104.8 meq/L.

And the DBIL [1]?
The DBIL was 0.006 mg/dL.

And the GLC [1]?
The GLC was 179 mg/dL.

And the IP [1]?
Its IP is 8.4 mg/dL.

And the K [1]?
Its K is 4.3 meq/L.

What about the LDH [1] of the same compound?
Its LDH is 195.4 IU/L.

And the Na [1]?
The Na was 142.4 meq/L.

What about the PL [1] of the same compound?
The PL was 143.6 mg/dL.

And the RALB [1]?
The RALB was 3.1 g/dL.

And the TBIL [1]?
Its TBIL is 0.02 mg/dL.

What about the TC [1] of the same compound?
Its TC is 75 mg/dL.

What about the TP [1] of the same compound?
The TP was 5.5 g/dL.

And the gamma-GTP [1]?
Its gamma-GTP is 1.2 IU/L.

What about the ALP (15 mg/kg, 24 h, dose level Low) of the same compound?
Its ALP is 1404.4 IU/L.

And the ALT (15 mg/kg, 24 h, dose level Low)?
The ALT was 40.2 IU/L.

And the AST (15 mg/kg, 24 h, dose level Low)?
The AST was 71.4 IU/L.

What about the BUN (15 mg/kg, 24 h, dose level Low) of the same compound?
Its BUN is 14.4 mg/dL.

And the Ca (15 mg/kg, 24 h, dose level Low)?
The Ca was 11.1 mg/dL.

And the Cl (15 mg/kg, 24 h, dose level Low)?
The Cl was 105.2 meq/L.

What about the DBIL (15 mg/kg, 24 h, dose level Low) of the same compound?
The DBIL was 0.02 mg/dL.

And the GLC (15 mg/kg, 24 h, dose level Low)?
Its GLC is 176.4 mg/dL.

What about the IP (15 mg/kg, 24 h, dose level Low) of the same compound?
Its IP is 8.1 mg/dL.

And the K (15 mg/kg, 24 h, dose level Low)?
The K was 4.5 meq/L.

And the LDH (15 mg/kg, 24 h, dose level Low)?
Its LDH is 82 IU/L.

What about the Na (15 mg/kg, 24 h, dose level Low) of the same compound?
The Na was 140.8 meq/L.

What about the PL (15 mg/kg, 24 h, dose level Low) of the same compound?
The PL was 159.4 mg/dL.

And the RALB (15 mg/kg, 24 h, dose level Low)?
The RALB was 2.6 g/dL.

And the TBIL (15 mg/kg, 24 h, dose level Low)?
The TBIL was 0.06 mg/dL.

And the TC (15 mg/kg, 24 h, dose level Low)?
Its TC is 87.6 mg/dL.

And the TP (15 mg/kg, 24 h, dose level Low)?
The TP was 5.6 g/dL.

And the gamma-GTP (15 mg/kg, 24 h, dose level Low)?
Its gamma-GTP is 1 IU/L.

And the TERMINAL_BW [2]?
Its TERMINAL_BW is 190.4 g.

What about the APTT [2] of the same compound?
Its APTT is 20 s.

And the Bas [2]?
The Bas was 0%.

What about the Eos [2] of the same compound?
The Eos was 0.8%.

And the Fbg [2]?
Its Fbg is 281.6 mg/dL.

What about the Hb [2] of the same compound?
The Hb was 13 g/dL.

And the Ht [2]?
The Ht was 38.9%.

What about the Lym [2] of the same compound?
Its Lym is 78%.

What about the MCH [2] of the same compound?
Its MCH is 20.6 pg.

And the MCHC [2]?
The MCHC was 33.4%.

What about the MCV [2] of the same compound?
Its MCV is 61.6 fL.

And the Mono [2]?
Its Mono is 2.6%.

And the Neu [2]?
The Neu was 17.6%.

And the PT [2]?
Its PT is 13.8 s.

What about the Plat [2] of the same compound?
Its Plat is 111.1 x10_4/uL.

What about the RBC [2] of the same compound?
The RBC was 631.6 x10_4/ul.

What about the Ret [2] of the same compound?
The Ret was 9.2%.

And the WBC [2]?
Its WBC is 101.7 x10_2/uL.

What about the KIDNEY_L [2] of the same compound?
Its KIDNEY_L is 0.8 g.

What about the KIDNEY_R [2] of the same compound?
The KIDNEY_R was 0.8 g.

And the KIDNEY_TOTAL [2]?
Its KIDNEY_TOTAL is 1.6 g.

What about the LIVER [2] of the same compound?
Its LIVER is 8.3 g.

What about the ALP [2] of the same compound?
The ALP was 1500.2 IU/L.

What about the ALT [2] of the same compound?
Its ALT is 35.8 IU/L.

What about the AST [2] of the same compound?
Its AST is 72.6 IU/L.

What about the BUN [2] of the same compound?
The BUN was 10 mg/dL.

And the CRE [2]?
The CRE was 0.2 mg/dL.

What about the Ca [2] of the same compound?
The Ca was 11.1 mg/dL.

What about the Cl [2] of the same compound?
Its Cl is 104.8 meq/L.

What about the DBIL [2] of the same compound?
Its DBIL is 0.018 mg/dL.

What about the GLC [2] of the same compound?
The GLC was 171.8 mg/dL.

And the IP [2]?
The IP was 8.7 mg/dL.

And the K [2]?
The K was 4.4 meq/L.

And the LDH [2]?
Its LDH is 72.6 IU/L.

What about the Na [2] of the same compound?
The Na was 140.2 meq/L.

And the PL [2]?
The PL was 160.4 mg/dL.

What about the RALB [2] of the same compound?
The RALB was 2.4 g/dL.

What about the TBIL [2] of the same compound?
Its TBIL is 0.068 mg/dL.

What about the TC [2] of the same compound?
The TC was 86.6 mg/dL.

What about the TP [2] of the same compound?
Its TP is 5.3 g/dL.

What about the gamma-GTP [2] of the same compound?
Its gamma-GTP is 1.4 IU/L.

And the TERMINAL_BW [3]?
Its TERMINAL_BW is 187.5 g.

And the APTT [3]?
The APTT was 17.2 s.

What about the Bas [3] of the same compound?
Its Bas is 0%.

And the Eos [3]?
Its Eos is 0.6%.

What about the Fbg [3] of the same compound?
The Fbg was 278.4 mg/dL.

From ChEMBL document CHEMBL3885861, “Open TG-GATES”
